The values that follow are results of earlier work, collected in US20110052685A1, “GASTRIC RETENTIVE PHARMACEUTICAL COMPOSITIONS FOR IMMEDIATE AND EXTENDED RELEASE OF ACETAMINOPHEN” (DEPOMED, INC., priority 2009, published 2011).

Structures are written as SMILES.

Take `CC(=O)Nc1ccc(O)cc1` [acetaminophen, N-(4-hydroxyphenyl)acetamine]: for the setting “elimination, from Rawlins et al., 1977”, the Half-life entry is “(2.7) hr”. Further, for the setting “from Rawlins et al., 1977”, the “1st Order Elimination Constant K” value was 0.257 h⁻¹, the “Oral Bioavaiability F” value was 0.89 and the “Volume of Distribution V” value was 78800 mL. For the same molecule, the “Absorption Half-life” value (oral immediate release, fed mode) is “(0.76) hr”. Also, the “1st Order Absorption Constant (under fed mode - with food) ka” value (oral immediate release, from Divoll et al., 1982) was 0.912 h⁻¹.
